ChEMBL document CHEMBL3822383, “Coumarin sulfonamides derivatives as potent and selective COX-2 inhibitors with efficacy in suppressing cancer proliferation and metastasis” (Bioorg Med Chem Lett, 2016)
pIC50: −log10 of the molar value. Active and inactive are the calls of the source. The rule behind the calls is not given here.

Legend:
HeLa [1] = assay: cells; settings: Homo sapiens, 24 h
Description: Antiproliferative activity against human HeLa cells after 24 hrs by MTT assay

cells [2] = settings: Homo sapiens, L02, 24 h
Description: Antiproliferative activity against human LO2 cells after 24 hrs by MTT assay

HeLa [3] = assay: Reduction in cell migration in human HeLa cells up to 4 uM by transwell migration assay; type: functional, cell-based
HeLa [4] = assay: Induction of apoptosis in PGE2-induced human HeLa cells assessed as viable cells at 3 uM after 24 hrs by Annexin V/propidium iodide based flow cytometric analysis; type: functional, cell-based
HeLa [5] = assay: Induction of apoptosis in human HeLa cells assessed as late apoptotic cells at 3 uM after 36 hrs by Annexin V/propidium iodide based flow cytometric analysis (reference value: 2.21 %); type: functional
HeLa [6] = assay: Reduction in cell migration in PGE2-induced human HeLa cells at 2 uM by transwell migration assay; type: functional, cell-based
HeLa [7] = assay: Reduction in cell invasion in PGE2-induced human HeLa cells at 2 uM by transwell invasion assay; type: functional, cell-based
HeLa [8] = assay: Induction of apoptosis in human HeLa cells assessed as viable cells at 3 uM after 36 hrs by Annexin V/propidium iodide based flow cytometric analysis (reference value: 96 %); type: functional; settings: read-out: Activity
HeLa [9] = assay: Induction of apoptosis in human HeLa cells assessed as necrotic cells at 8 uM after 24 hrs by Annexin V/propidium iodide based flow cytometric analysis (reference value: 0.441 %); type: functional
HeLa [10] = assay: Induction of apoptosis in human HeLa cells assessed as early apoptotic cells at 3 uM after 12 hrs by Annexin V/propidium iodide based flow cytometric analysis (reference value: 1.61 %); type: functional
HeLa [11] = assay: Induction of apoptosis in human HeLa cells assessed as late apoptotic cells at 4 uM after 24 hrs by Annexin V/propidium iodide based flow cytometric analysis (reference value: 3.16 %); type: functional
HeLa [12] = assay: Induction of apoptosis in PGE2-induced human HeLa cells assessed as early apoptotic cells at 3 uM after 24 hrs by Annexin V/propidium iodide based flow cytometric analysis; type: functional, cell-based
HeLa [13] = assay: Induction of apoptosis in human HeLa cells assessed as necrotic cells at 3 uM after 24 hrs by Annexin V/propidium iodide based flow cytometric analysis (reference value: 0.207 %); type: functional
HeLa [14] = assay: Induction of apoptosis in human HeLa cells assessed as viable cells at 2 uM after 24 hrs by Annexin V/propidium iodide based flow cytometric analysis (reference value: 95.5 %); type: functional; settings: read-out: Activity
HeLa [15] = assay: Induction of apoptosis in human HeLa cells assessed as viable cells at 1 uM after 24 hrs by Annexin V/propidium iodide based flow cytometric analysis (reference value: 95.5 %); type: functional; settings: read-out: Activity
HeLa [16] = assay: Induction of apoptosis in human HeLa cells assessed as viable cells at 3 uM after 24 hrs by Annexin V/propidium iodide based flow cytometric analysis (reference value: 96 %); type: functional; settings: read-out: Activity
HeLa [17] = assay: Inhibition of cell adhesion in PGE2-induced human HeLa cells assessed as reduction in cell attachment at 2 uM after 12 hrs by MTT assay; type: functional, cell-based
HeLa [18] = assay: Induction of apoptosis in human HeLa cells assessed as early apoptotic cells at 3 uM after 36 hrs by Annexin V/propidium iodide based flow cytometric analysis (reference value: 1.61 %); type: functional
HeLa [19] = assay: Induction of apoptosis in human HeLa cells assessed as early apoptotic cells at 2 uM after 24 hrs by Annexin V/propidium iodide based flow cytometric analysis (reference value: 0.902 %); type: functional
HeLa [20] = assay: Induction of apoptosis in human HeLa cells assessed as early apoptotic cells at 1 uM after 24 hrs by Annexin V/propidium iodide based flow cytometric analysis (reference value: 0.902 %); type: functional
[21] = molecular target: Prostaglandin G/H synthase 1 (Homo sapiens, UniProt P23219); assay: Inhibition of human COX1 using arachidonic acid assessed as production of PGF2alpha after 5 mins by ELISA
Chain of Prostaglandin G/H synthase 1 (P23219 whole entry): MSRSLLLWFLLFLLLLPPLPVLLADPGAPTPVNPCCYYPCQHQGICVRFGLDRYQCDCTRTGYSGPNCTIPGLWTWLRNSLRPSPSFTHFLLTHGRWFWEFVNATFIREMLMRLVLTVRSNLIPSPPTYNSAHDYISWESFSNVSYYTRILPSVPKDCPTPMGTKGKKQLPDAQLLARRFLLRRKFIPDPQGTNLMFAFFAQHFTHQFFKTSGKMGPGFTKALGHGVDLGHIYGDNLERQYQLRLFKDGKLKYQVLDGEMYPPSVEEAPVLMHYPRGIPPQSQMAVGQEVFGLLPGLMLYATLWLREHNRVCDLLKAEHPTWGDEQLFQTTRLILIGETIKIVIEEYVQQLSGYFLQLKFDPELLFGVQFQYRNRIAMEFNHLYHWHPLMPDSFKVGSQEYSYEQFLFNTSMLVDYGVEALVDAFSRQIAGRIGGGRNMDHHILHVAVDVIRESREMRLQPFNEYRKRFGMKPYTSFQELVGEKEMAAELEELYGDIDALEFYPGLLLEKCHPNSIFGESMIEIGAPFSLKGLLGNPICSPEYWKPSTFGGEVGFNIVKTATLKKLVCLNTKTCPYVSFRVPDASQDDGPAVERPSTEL

HeLa [22] = assay: Inhibition of PGE2 secretion in human HeLa cells at 0.1 uM after 24 hrs by EIA monoclonal assay; type: functional, cell-based
HeLa [23] = assay: Induction of apoptosis in PGE2-induced human HeLa cells assessed as late apoptotic cells at 3 uM after 24 hrs by Annexin V/propidium iodide based flow cytometric analysis; type: functional, cell-based
HeLa [24] = assay: Induction of apoptosis in human HeLa cells assessed as late apoptotic cells at 3 uM after 24 hrs by Annexin V/propidium iodide based flow cytometric analysis (reference value: 2.21 %); type: functional
A549 = assay: cells; settings: Homo sapiens, A549, 24 h
Description: Antiproliferative activity against human A549 cells after 24 hrs by MTT assay

cells [25] = settings: Mus musculus, B16-F10, 24 h
Description: Antiproliferative activity against mouse B16F10 cells after 24 hrs by MTT assay

HeLa [26] = assay: Induction of apoptosis in human HeLa cells assessed as early apoptotic cells at 3 uM after 24 hrs by Annexin V/propidium iodide based flow cytometric analysis (reference value: 1.61 %); type: functional
HeLa [27] = assay: Induction of apoptosis in human HeLa cells assessed as viable cells at 8 uM after 24 hrs by Annexin V/propidium iodide based flow cytometric analysis (reference value: 95.5 %); type: functional; settings: read-out: Activity
HeLa [28] = assay: Induction of apoptosis in human HeLa cells assessed as early apoptotic cells at 4 uM after 24 hrs by Annexin V/propidium iodide based flow cytometric analysis (reference value: 0.902 %); type: functional
HeLa [29] = assay: Induction of apoptosis in human HeLa cells assessed as necrotic cells at 2 uM after 24 hrs by Annexin V/propidium iodide based flow cytometric analysis (reference value: 0.441 %); type: functional
HeLa [30] = assay: Antiproliferative activity in PGE2-induced human HeLa cells at 2 uM after 12 to 24 hrs by MTT assay; type: functional, cell-based
HepG2 = assay: cells; settings: Homo sapiens, HepG2, 24 h
Description: Antiproliferative activity against human HepG2 cells after 24 hrs by MTT assay

HeLa [31] = assay: Induction of apoptosis in human HeLa cells assessed as late apoptotic cells at 1 uM after 24 hrs by Annexin V/propidium iodide based flow cytometric analysis (reference value: 3.16 %); type: functional
HeLa [32] = assay: Induction of apoptosis in human HeLa cells assessed as late apoptotic cells at 8 uM after 24 hrs by Annexin V/propidium iodide based flow cytometric analysis (reference value: 3.16 %); type: functional
HeLa [33] = assay: Induction of apoptosis in human HeLa cells assessed as necrotic cells at 3 uM after 12 hrs by Annexin V/propidium iodide based flow cytometric analysis (reference value: 0.441 %); type: functional
HeLa [34] = assay: Induction of apoptosis in human HeLa cells assessed as necrotic cells at 4 uM after 24 hrs by Annexin V/propidium iodide based flow cytometric analysis (reference value: 0.441 %); type: functional
HeLa [35] = assay: Reduction in cell invasion in human HeLa cells up to 4 uM by transwell invasion assay; type: functional, cell-based
HeLa [36] = assay: Induction of apoptosis in human HeLa cells assessed as viable cells at 4 uM after 24 hrs by Annexin V/propidium iodide based flow cytometric analysis (reference value: 95.5 %); type: functional; settings: read-out: Activity
HeLa [37] = assay: Inhibition of cell adhesion in human HeLa cells assessed as reduction in cell attachment at 2 uM after 1 hr by MTT assay; type: functional
HeLa [38] = assay: Induction of apoptosis in human HeLa cells assessed as viable cells at 3 uM after 12 hrs by Annexin V/propidium iodide based flow cytometric analysis (reference value: 96 %); type: functional; settings: read-out: Activity
HeLa [39] = assay: Induction of apoptosis in human HeLa cells assessed as necrotic cells at 3 uM after 12 hrs by Annexin V/propidium iodide based flow cytometric analysis (reference value: 0.207 %); type: functional
HeLa [40] = assay: Induction of apoptosis in human HeLa cells assessed as necrotic cells at 1 uM after 24 hrs by Annexin V/propidium iodide based flow cytometric analysis (reference value: 0.441 %); type: functional
HeLa [41] = assay: Induction of apoptosis in human HeLa cells assessed as early apoptotic cells at 8 uM after 24 hrs by Annexin V/propidium iodide based flow cytometric analysis (reference value: 0.902 %); type: functional
HeLa [42] = assay: Induction of apoptosis in human HeLa cells assessed as necrotic cells at 3 uM after 36 hrs by Annexin V/propidium iodide based flow cytometric analysis (reference value: 0.207 %); type: functional
HeLa [43] = assay: Induction of apoptosis in PGE2-induced human HeLa cells assessed as necrotic cells at 3 uM after 24 hrs by Annexin V/propidium iodide based flow cytometric analysis; type: functional, cell-based
HeLa [44] = assay: Inhibition of cell adhesion in human HeLa cells assessed as reduction in cell attachment after 1 hr by MTT assay; type: functional, cell-based
HeLa [45] = assay: Induction of apoptosis in human HeLa cells assessed as late apoptotic cells at 3 uM after 12 hrs by Annexin V/propidium iodide based flow cytometric analysis (reference value: 2.21 %); type: functional
cells [46] = settings: Homo sapiens, HEK-293T, 24 h
Description: Antiproliferative activity against human 293T cells after 24 hrs by MTT assay

HeLa [47] = assay: Induction of apoptosis in human HeLa cells assessed as late apoptotic cells at 2 uM after 24 hrs by Annexin V/propidium iodide based flow cytometric analysis (reference value: 3.16 %); type: functional

pIC50 (HeLa [1]): 6.44
pIC50 [21]: 4.32
pIC50 (A549): 5.59
pIC50 (cells [25]): 5.64
pIC50 (HepG2): 6.07
pIC50 (cells [46]): 3.63
Structure (SMILES): NS(=O)(=O)c1ccc(-n2nc(C(=O)N/N=C/c3c(Cl)c4ccccc4oc3=O)cc2-c2ccc(C(F)(F)F)cc2)cc1
pIC50 (cells [2]): 3.57
Activity (HeLa [3]): Dose-dependent effect
Activity (HeLa [4]): Active
Activity (HeLa [5]): 10.2%
Activity (HeLa [6]): Active
Activity (HeLa [7]): Active
viability at 3 µM (HeLa [8]): 66.6%
Activity (HeLa [9]): 1.82%
Activity (HeLa [10]): 3.79%
Activity (HeLa [11]): 11%
Activity (HeLa [12]): Active
Activity (HeLa [13]): 0.049%
viability at 2 µM (HeLa [14]): 85.9%
viability at 1 µM (HeLa [15]): 94%
viability at 3 µM (HeLa [16]): 76.3%
inhibition (HeLa [17]): Active
Activity (HeLa [18]): 21.6%
Activity (HeLa [19]): 7.64%
Activity (HeLa [20]): 2.12%
inhibition (HeLa [22]): Active
Activity (HeLa [23]): Active
Activity (HeLa [24]): 8.83%
Activity (HeLa [26]): 14.8%
viability at 8 µM (HeLa [27]): 49%
Activity (HeLa [28]): 24.8%
Activity (HeLa [29]): 0.143%
Activity (HeLa [30]): Active
Activity (HeLa [31]): 3.58%
Activity (HeLa [32]): 15.6%
Activity (HeLa [33]): 0.276%
Activity (HeLa [34]): 2.14%
Activity (HeLa [35]): Active
viability at 4 µM (HeLa [36]): 62%
inhibition at 2 µM (HeLa [37]): 60%
viability at 3 µM (HeLa [38]): 92.9%
Activity (HeLa [39]): 0.276%
Activity (HeLa [40]): 0.301%
Activity (HeLa [41]): 33.6%
Activity (HeLa [42]): 1.62%
Activity (HeLa [43]): Active
inhibition (HeLa [44]): Dose-dependent effect
Activity (HeLa [45]): 3.02%
Activity (HeLa [47]): 6.29%
